Literature values, collected in US20230150977A1, “PYRIDAZINONE COMPOUNDS FOR THE TREATMENT OF NEUROMUSCULAR DISEASES” (Edgewise Therapeutics, Inc., priority 2020, published 2023).

Tested on: embryos from zebrafish model of DMD
Conditions: Li and Arner, PLoSONE, 2015; cited from earlier work

In the case of `Cc1ccc(S(=O)(=O)NCc2ccccc2)cc1` [BTS, N-benzyl-p-tolyl-sulfonamide], the “protection of muscles from pathological muscle derangement” value is given as “protect muscles from pathological muscle derangement”.
